Consider 13 molecules from patent US20090270394A1, “CYCLYLAMINE DERIVATIVES AS CALCIUM CHANNEL BLOCKERS” (priority 2008, published 2009).

As a reminder, the IC50 is the point on the concentration scale where inhibition reaches its midpoint.

In one assay the test system is T-type calcium channels. Particulars: cited from earlier work.
The next assay deals with T1, Human Cav2.2 channels (Homo sapiens, UniProt Q00975).
T1 construct: expressed in transfected cells
The assay is described as follows: Fluorescent assay for Cav2.2 channels using potassium depolarization to initiate channel opening. The format is cell-based. Particulars: for inhibition at 10 µM: read-out: Cav 2.2 Activity % Inh at 10 μM; for inhibition at 30 µM: read-out: Cav 2.2 Activity % Inh at 30 μM; for IC50: 30 mM K (block of open and inactivated channels), read-out: Cav 2.2 Activity IC50 at 30 mM K. In a few lines:
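HEK293 cells stably expressing human Cav2.2 with alpha2-delta and beta subunits plus Kir2.3, dye-loaded, then held 30 min at 25° C. in 4, 12, 25 or 30 mM K+ pre-polarization buffer with compound.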

T1 sequence (Q00975 whole entry): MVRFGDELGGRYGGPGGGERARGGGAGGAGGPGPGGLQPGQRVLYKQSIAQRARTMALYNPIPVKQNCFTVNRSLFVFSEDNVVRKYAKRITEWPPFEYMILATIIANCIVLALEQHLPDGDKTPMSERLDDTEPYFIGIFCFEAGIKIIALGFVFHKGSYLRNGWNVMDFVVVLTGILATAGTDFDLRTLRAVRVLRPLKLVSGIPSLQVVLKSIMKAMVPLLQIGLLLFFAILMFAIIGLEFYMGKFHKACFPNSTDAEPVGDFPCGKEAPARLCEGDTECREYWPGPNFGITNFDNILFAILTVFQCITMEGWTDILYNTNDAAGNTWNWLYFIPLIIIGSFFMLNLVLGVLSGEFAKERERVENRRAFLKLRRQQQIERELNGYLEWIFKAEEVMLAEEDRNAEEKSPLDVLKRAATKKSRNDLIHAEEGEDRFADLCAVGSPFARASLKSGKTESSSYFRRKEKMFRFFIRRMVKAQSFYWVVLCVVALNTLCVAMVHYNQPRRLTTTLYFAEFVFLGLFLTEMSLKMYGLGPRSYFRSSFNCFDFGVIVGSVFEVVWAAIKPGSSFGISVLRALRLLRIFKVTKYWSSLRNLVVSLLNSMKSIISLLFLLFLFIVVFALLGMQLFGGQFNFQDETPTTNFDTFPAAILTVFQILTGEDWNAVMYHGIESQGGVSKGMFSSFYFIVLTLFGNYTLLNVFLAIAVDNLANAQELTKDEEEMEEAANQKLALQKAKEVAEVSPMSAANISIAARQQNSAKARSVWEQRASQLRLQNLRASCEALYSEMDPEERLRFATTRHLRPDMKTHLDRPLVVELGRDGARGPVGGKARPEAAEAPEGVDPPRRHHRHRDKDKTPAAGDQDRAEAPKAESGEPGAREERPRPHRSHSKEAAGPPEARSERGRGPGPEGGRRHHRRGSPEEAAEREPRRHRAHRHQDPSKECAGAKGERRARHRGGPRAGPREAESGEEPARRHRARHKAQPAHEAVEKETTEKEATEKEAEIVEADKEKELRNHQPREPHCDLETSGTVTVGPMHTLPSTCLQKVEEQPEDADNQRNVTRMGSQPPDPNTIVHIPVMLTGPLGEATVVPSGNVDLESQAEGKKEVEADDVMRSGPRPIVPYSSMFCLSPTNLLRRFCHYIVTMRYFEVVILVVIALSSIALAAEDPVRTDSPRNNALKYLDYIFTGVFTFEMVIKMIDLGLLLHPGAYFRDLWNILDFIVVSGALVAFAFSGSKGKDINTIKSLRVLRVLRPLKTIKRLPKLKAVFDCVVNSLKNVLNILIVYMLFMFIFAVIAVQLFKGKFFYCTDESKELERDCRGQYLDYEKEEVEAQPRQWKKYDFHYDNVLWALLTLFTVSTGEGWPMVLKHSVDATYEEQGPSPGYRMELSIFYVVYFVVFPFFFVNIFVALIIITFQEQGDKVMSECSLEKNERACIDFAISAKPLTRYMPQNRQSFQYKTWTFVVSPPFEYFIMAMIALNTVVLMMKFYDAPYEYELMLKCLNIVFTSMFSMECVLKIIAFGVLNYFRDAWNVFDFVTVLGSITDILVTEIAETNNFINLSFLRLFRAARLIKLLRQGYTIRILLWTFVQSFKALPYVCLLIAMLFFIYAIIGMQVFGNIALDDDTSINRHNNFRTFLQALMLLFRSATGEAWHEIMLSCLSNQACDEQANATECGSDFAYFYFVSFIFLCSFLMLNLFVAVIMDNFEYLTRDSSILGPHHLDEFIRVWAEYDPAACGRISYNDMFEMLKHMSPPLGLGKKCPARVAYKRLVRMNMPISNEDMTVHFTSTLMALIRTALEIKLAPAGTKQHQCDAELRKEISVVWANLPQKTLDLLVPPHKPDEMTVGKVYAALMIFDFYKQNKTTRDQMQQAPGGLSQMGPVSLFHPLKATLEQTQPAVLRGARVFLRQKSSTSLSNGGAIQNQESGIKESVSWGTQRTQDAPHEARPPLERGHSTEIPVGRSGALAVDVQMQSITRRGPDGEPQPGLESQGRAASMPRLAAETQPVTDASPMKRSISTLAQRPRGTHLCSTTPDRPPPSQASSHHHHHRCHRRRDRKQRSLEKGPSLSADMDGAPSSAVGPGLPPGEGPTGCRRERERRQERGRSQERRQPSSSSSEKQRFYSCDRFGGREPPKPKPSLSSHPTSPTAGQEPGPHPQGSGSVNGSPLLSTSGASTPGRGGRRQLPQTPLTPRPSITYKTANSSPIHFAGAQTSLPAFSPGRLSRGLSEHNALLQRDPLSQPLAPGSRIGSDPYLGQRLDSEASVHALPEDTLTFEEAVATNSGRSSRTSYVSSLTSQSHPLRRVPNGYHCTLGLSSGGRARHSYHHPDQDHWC
T1 sequence (P54289 25-1103 partner): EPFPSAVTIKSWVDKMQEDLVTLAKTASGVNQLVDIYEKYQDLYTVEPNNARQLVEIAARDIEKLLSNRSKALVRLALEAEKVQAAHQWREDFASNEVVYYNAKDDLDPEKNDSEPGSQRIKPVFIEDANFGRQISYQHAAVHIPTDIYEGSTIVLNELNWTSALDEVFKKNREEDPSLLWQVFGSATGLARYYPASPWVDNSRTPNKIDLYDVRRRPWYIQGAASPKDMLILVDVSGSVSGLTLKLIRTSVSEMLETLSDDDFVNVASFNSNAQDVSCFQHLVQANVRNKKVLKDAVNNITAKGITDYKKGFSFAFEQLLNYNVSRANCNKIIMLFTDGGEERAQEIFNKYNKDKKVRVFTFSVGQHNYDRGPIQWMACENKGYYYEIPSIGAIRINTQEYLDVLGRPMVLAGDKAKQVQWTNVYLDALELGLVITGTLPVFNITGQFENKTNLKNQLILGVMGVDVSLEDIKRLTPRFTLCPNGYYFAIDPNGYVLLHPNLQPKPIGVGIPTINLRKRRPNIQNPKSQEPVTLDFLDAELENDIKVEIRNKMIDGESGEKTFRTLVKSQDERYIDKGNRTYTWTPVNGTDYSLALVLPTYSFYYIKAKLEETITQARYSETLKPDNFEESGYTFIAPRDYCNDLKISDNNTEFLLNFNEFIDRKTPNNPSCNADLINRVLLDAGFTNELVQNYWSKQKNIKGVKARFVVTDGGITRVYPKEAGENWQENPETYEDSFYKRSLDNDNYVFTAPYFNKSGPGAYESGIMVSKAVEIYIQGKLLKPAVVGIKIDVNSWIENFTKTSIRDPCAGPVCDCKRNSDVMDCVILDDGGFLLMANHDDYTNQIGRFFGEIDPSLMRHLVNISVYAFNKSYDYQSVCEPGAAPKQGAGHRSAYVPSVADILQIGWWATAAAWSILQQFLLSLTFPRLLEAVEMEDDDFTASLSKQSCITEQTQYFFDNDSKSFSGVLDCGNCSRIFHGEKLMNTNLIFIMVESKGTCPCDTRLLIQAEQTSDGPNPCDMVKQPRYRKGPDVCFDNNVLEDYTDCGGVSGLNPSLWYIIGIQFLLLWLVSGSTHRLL
T1 sequence (P54284 whole entry partner): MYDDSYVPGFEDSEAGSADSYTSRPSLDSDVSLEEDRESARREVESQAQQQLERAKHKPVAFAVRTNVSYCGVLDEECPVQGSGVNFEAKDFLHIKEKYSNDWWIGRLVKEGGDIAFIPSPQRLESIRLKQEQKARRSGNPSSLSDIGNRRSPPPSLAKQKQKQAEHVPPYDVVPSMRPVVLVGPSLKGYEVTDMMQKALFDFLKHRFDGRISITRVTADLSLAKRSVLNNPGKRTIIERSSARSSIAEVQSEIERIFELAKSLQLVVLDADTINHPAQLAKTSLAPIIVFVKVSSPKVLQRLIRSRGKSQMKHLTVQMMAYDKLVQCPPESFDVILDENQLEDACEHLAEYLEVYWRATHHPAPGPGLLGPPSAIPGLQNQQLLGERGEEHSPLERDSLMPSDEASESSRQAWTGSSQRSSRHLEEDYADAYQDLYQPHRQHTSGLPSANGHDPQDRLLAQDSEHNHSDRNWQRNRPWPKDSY

For `COCC(=O)O[C@]1(CCN(C)CCCc2nc3ccccc3[nH]2)CCc2cc(F)ccc2[C@@H]1C(C)C` [Mibefradil], the “fold selective for T-type over L-type channels” value in the assay on T-type calcium channels is given as 10-30 fold.
In the case of `Cc1cc(CNC(=O)C2(NC(=O)c3cc(C4CC4)cc(C4CC4)c3)CCCCC2)nn1C` [Compound 6, 3,5-dicyclopropyl-N-(1-((1,5-dimethyl-1H-pyrazol-3-yl)methylcarbamoyl)cyclohexyl)benzamide], at Human Cav2.2 channels (10 μM compound), the inhibition at 10 µM amounted to 54.7%. In addition, the inhibition at 30 µM on Human Cav2.2 channels (30 μM compound) was 66%.
Take `COc1ccc(CNC(=O)C2(NC(=O)c3cc(C(C)(C)C)nc(C(C)(C)C)c3)CCOCC2)cc1` [Compound 113, 2,6-di-tert-butyl-N-(4-(4-methoxybenzylcarbamoyl)tetrahydro-2H-pyran-4-yl)isonicotinamide]: the inhibition at 10 µM on Human Cav2.2 channels (10 μM compound) is 79%. In addition, the inhibition at 30 µM at Human Cav2.2 channels (30 μM compound) was determined as 93%. Moreover, at Human Cav2.2 channels, the concentration for half-maximal inhibition (IC50) was 0.0594 µM.
Taken in the same sequence, the figures for `CC(C)(C#N)c1cccc(C(=O)NC2(C(=O)NCc3cccc(C(F)(F)F)c3)CCCCC2)c1` [Compound 124, 3-(2-cyanopropan-2-yl)-N-(1-(3-(trifluoromethyl)benzylcarbamoyl)cyclohexyl)benzamide] were 84.2%, 74% and 0.81 µM.
For `CC(C)(C)c1cc(C(=O)NC2(C(=O)NCc3nccs3)CC2)cc(C(C)(C)C)c1O` [Compound 1, 3,5-di-tert-butyl-4-hydroxy-N-(1-(thiazol-2-ylmethylcarbamoyl)cyclopropyl)benzamide], in that order: 95.2%, 104% and 1.21 µM.
Consider `COc1ccc(CNC(=O)C2(NC(=O)c3cc(C(C)(C)C)c(OC)c(C(C)(C)C)c3)CC2)cc1` [Compound 110, 3,5-di-tert-butyl-4-methoxy-N-(1-(4-methoxybenzylcarbamoyl)cyclopropyl)benzamide], for which the inhibition at 10 µM on Human Cav2.2 channels (10 μM compound) was found to be 100%. The inhibition at 30 µM on Human Cav2.2 channels (30 μM compound) stood at 101%. Further, on Human Cav2.2 channels, the IC50 was 0.121 µM.
As to `CN(C)c1ccc(CNC(=O)C2(NC(=O)c3cc(C(C)(C)C)nc(C(C)(C)C)c3)CCCCC2)cc1` [Compound 77, 2,6-di-tert-butyl-N-(1-(4-(dimethylamino)benzylcarbamoyl)cyclohexyl)isonicotinamide], on Human Cav2.2 channels (10 μM compound), the inhibition at 10 µM is 48.7%. Further, the inhibition at 30 µM on Human Cav2.2 channels (30 μM compound) was 66.9%. The IC50 on Human Cav2.2 channels turned out to be 0.574 µM.
Taken in the same sequence, the figures for `CC(C)(C)c1cc(C(=O)NC2(C(=O)NCc3nccs3)CC2)cc(C(C)(C)C)n1` [Compound 10, 2,6-di-tert-butyl-N-(1-(thiazol-2-ylmethylcarbamoyl)cyclopropyl)isonicotinamide] were 95.7%, 101% and 0.184 µM.
“1-(2,6-di-tert-butylisonicotinimidamido)-N-((5-methylisoxazol-3-yl)methyl)cyclopentanecarboxamide [Compound 90]”: the “Cav 2.2 Activity % Inh at 10 μM” value at Human Cav2.2 channels (10 μM compound) is 90.95%. In addition, on Human Cav2.2 channels (30 μM compound), the “Cav 2.2 Activity % Inh at 30 μM” value turned out to be 98.53%. Moreover, on Human Cav2.2 channels, the 50% inhibitory concentration (IC50) was 0.0772 µM.
On to `CC(C)(C)c1cc(C(=O)NC2(C(=O)Nc3ccccn3)CC2)cc(C(C)(C)C)n1` [Compound 20, 2,6-di-tert-butyl-N-(1-(pyridin-2-ylcarbamoyl)cyclopropyl)isonicotinamide], for which the inhibition at 10 µM at Human Cav2.2 channels (10 μM compound) turned out to be 100%. Moreover, the half-inhibitory concentration (IC50) at Human Cav2.2 channels stood at 0.102 µM.
Consider `CC(C)(C)c1cc(C(=O)NC2(C(=O)Nc3nc4ccccc4[nH]3)CC2)cc(C(C)(C)C)n1` [Compound 19, N-(1-(1H-benzo[d]imidazol-2-ylcarbamoyl)cyclopropyl)-2,6-di-tert-butylisonicotinamide], for which the inhibition at 10 µM at Human Cav2.2 channels (10 μM compound) was found to be 60.3%.
Consider `N#CCc1cc(CC#N)cc(C(=O)NC2(C(=O)NCc3cccc(C(F)(F)F)c3)CCCCC2)c1` [Compound 61, 3,5-bis(cyanomethyl)-N-(1-(3-(trifluoromethyl)benzylcarbamoyl)cyclohexyl)benzamide], for which, on Human Cav2.2 channels (10 μM compound), the inhibition at 10 µM was 18.7%. Moreover, the inhibition at 30 µM at Human Cav2.2 channels (30 μM compound) was found to be 56.4%.
Consider `CC(C)(C)c1cc(C(=O)NC2(C(=O)NCc3ccc(NS(C)(=O)=O)cc3)CC2)cc(C(C)(C)C)c1O` [Compound 117, 3,5-di-tert-butyl-4-hydroxy-N-(1-(4-(methylsulfonamido)benzylcarbamoyl)cyclopropyl)benzamide], for which the inhibition at 10 µM on Human Cav2.2 channels (10 μM compound) came out at 74.2%. Besides, the inhibition at 30 µM on Human Cav2.2 channels (30 μM compound) worked out at 101%. Also, the IC50 on Human Cav2.2 channels worked out at 1.09 µM.
